Laboratory results published in US9486449B2, “Cancer therapy” (priority 2007, dated 2016).
“And” between values parts separate entries of the source, which are not always exact repeats. Identical values can stand only once. Counter-ions that a name gives are not always drawn. Each block holds one compound with its values, some of them ahead of it.

Key:
[1] = molecular target: T1, binding of γ-tubulin to kinesin-14/HSET (Homo sapiens, UniProt Q9BW19); test: Co-IP of kinesin-14/HSET with γ-tubulin in MDA-MB-231 cells; assay type: cell-based; details: 48 hours, PJ-34 20 μM, Tiq-A 100 μM, Phen(6) 50 μM
T1 sequence (Q9BW19 1-673): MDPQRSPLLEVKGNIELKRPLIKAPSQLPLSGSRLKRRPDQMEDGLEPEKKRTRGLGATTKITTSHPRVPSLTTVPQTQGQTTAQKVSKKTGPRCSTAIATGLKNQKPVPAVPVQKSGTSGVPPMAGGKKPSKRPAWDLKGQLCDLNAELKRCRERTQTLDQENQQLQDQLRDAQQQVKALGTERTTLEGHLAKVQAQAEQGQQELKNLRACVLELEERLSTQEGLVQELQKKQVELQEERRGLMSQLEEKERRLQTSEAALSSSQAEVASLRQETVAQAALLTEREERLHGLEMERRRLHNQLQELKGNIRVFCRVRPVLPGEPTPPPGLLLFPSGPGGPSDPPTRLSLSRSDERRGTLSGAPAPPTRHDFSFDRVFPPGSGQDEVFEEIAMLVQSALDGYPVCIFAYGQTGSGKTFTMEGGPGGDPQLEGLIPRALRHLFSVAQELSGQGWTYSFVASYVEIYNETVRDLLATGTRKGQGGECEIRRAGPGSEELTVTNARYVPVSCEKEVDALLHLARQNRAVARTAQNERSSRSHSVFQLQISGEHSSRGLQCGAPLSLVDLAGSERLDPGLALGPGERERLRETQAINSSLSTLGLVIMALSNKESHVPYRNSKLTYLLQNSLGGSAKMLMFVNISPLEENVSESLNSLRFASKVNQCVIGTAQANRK
Source text: Thus, PJ-34, Tiq-A and Phen interfered with the co-immunoprecipitation of HSET with γ-tubulin.

[2] = test system: α-tubulin with γ-tubulin; test: Co-immunoprecipitation of α-tubulin with γ-tubulin in cancer cells; assay type: cell-based
[3] = molecular target: PARP-1 (Homo sapiens, UniProt P09874); details: cited from earlier work; for EC50: read-out: EC50 for PARP1 inhibition
Sequence of PARP-1 (P09874 whole entry, species assumed): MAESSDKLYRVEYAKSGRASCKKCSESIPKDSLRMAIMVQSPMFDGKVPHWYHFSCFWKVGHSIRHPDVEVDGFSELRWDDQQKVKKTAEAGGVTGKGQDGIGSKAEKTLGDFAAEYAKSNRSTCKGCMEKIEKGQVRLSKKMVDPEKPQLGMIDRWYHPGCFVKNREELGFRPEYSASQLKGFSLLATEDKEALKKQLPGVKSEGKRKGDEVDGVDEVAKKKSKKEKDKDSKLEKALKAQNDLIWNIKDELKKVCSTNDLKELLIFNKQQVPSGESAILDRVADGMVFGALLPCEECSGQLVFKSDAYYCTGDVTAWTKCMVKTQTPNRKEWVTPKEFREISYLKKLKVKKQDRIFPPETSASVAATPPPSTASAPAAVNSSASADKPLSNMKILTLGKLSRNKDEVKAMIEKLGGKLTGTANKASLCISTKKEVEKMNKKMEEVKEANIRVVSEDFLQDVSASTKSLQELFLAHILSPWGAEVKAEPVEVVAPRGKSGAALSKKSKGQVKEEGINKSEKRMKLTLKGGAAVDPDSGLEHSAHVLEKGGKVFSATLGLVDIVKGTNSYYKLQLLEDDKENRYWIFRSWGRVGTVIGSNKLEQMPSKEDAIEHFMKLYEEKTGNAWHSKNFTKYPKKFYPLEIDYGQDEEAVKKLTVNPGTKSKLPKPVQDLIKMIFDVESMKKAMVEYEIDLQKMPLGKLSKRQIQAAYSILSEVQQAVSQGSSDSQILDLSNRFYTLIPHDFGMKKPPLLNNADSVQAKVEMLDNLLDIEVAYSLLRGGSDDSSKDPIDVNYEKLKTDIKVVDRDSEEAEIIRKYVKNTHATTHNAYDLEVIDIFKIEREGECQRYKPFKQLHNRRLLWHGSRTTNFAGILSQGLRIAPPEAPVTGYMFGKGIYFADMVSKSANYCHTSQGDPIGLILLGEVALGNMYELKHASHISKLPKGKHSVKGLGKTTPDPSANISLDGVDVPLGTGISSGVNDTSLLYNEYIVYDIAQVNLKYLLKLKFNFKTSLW

[4] = test system: MCF-7 brca1+/+ cells; details: 10 μM, 10 consecutive days; cited from earlier work
[5] = test system: CAPANI cells (which are deficient in brca2); details: cited from earlier work
[6] = Tolerability of slow-release PJ-34 in nude mice; assay type: in vivo
Method: . In vivo experiments were carried out in nude female mice (nu/nu) injected subcutaneously with MCF-7 or MDA-MB-231 cells (FIG. 15). […]. In the control nude mice, pumps contained only PBS, or pumps were not implanted. Each mouse was injected subcutaneously with approximately 10^7 MCF-7 or MDA-MB-231 cells dispersed in Matrigel. Tumors developed within 6 to 7 weeks in the control mice injected with MCF-7 cells and within 10 days in the control mice injected with MDA231 cells. One mouse died 3 weeks after being injected with MDA-MB-231 cells. […]

[7] = test system: MDA-MB-231 xenotransplants; test: MDA-MB-231 xenotransplants in nude mice, PJ-34 by subcutaneous osmotic pump; assay type: in vivo, mouse; details: PJ-34 treated, tumor-free mice
Method: Xenotransplants were developed in female CD-1 nu/nu 5 to 6 weeks old. MCF-7 and MDA 231 cells were injected subcutaneously, about 10^7 MCF-7 or MDA231 cells in 150 μl of PBS and 150 μl of Martigel Basement Membrane Matrix Becton Dickinson, Bedford, Mass., USA; In Israel Bactolab Diagnostics). In mice treated with PJ-34, injection was adjacent to subcutaneous osmotic pumps dripping PJ-34 by a slow release. The mice were maintained under specific pathogen-free conditions with access to mouse chow and water ad libitum. […]. Subcutaneous implantation of these pumps was performed before injection by a veterinarian (Dr. Kastel David). All the experiments with nude mice conform to the Guide for the Care and Use of Laboratory Animals published by the NIH (publication No. 85-23, revised 1996). Approval was granted by the Israeli Ministry of Health ethics review board in the Tel-AvivUniversity (M08033).
In vivo experiments were carried out in nude female mice (nu/nu) injected subcutaneously with MCF-7 or MDA-MB-231 cells (FIG. 15). […]. In the control nude mice, pumps contained only PBS, or pumps were not implanted. Each mouse was injected subcutaneously with approximately 10^7 MCF-7 or MDA-MB-231 cells dispersed in Matrigel. Tumors developed within 6 to 7 weeks in the control mice injected with MCF-7 cells and within 10 days in the control mice injected with MDA231 cells. […]

[8] = test system: MCF-7 breast cancer cells; test: Survival of MCF-7 cells after single application (cell count, microscopy); assay type: cell-based, human; details: for MCF-7 survival: 48 to 72 hours, 10 μM PJ-34, Tiq-A 100 μM, Phen 50 μM; for killing of MCF-7 cells: Example 7, single application 24 h after seeding, Tiq-A 50/100 μM 72 h, Phen 25 μM 48 h / 50 μM 72 h
Method: Cells were cultured in 6-wells multi-dish plates (Nunc Denmark). MCF-7 and MDA231 cells were cultured in 6-wells multi-dish plates (Nunc Denmark). MCF-7 and MDA231 cells were maintained in a medium containing DMEM (cat #01055-1A), 10% Horse serum (cat #04-124-1A), 1% L-Glutamine (cat #03-020-1B), and 1% Pen-Strep Ampho (cat #03-033-1B) (Gibco, Invitrogene, purchased from Rhenium, Jerusalem 91035 Israel.
MCF-7 cells were seeded (about 50,000/well) in 6-well plates. […]. […] […].
The effect of PARP inhibitors on MCF-7 and MDA-MB-231 human breast cancer cells was examined (cells were seeded in about 500,000 cells/[…] well in six-well plates). […]. The damage was irreversible. […]. […] […].

[9] = test system: U-87 Glioblastoma cells; test: Viability of U-87 glioblastoma cells (FACS); assay type: cell-based, human; details: 0.5-30 μM, single application; 72 and 96 h (PJ-34), 96 h (Phen, Tiq-A)
Method: The malignant U-87 Glioblastoma cells were incubated with these molecules applied once 24 hours after seeding. Cell viability was measured by FACS. The results of 3 different experiments carried in duplicates are presented.

[10] = test system: extra-centrosomes de-clustering in human cancer cells; test: Extra-centrosomes de-clustering; assay type: cell-based
[11] = test system: MDA-MB-231 xenotransplants; test: MDA-MB-231 xenotransplants in nude mice, PJ-34 intra-peritoneal; assay type: in vivo, mouse; details: 50 mg/kg PJ-34 i.p. daily for 14 days, started at palpable tumors; individual treated mice (untreated 750 and 850); HCl
Method: In vivo experiments were carried out in nude female mice (nu/nu) injected subcutaneously with MDA-MB-231 cells (FIG. 32). […] About 10^6 cells were injected in 100 μl of MEM (Gibco, Rhenium, Jerusalem Israel) and 100 μl of Matrigel Basement Membrane Matrix (Becton Dickinson, Bedford, Mass., USA; In Israel, Bactolab Diagnostics). Two weeks after injection with MDA-MB-231 cells, palpable (50-80 mm^3) tumors developed in all the female nude mice. One pair of mice remained un-treated. […] Tumors' size was measured every day in all the mice (both treated and untreated). The treated mice were photographed on the first day and on the last day of treatment. Tumor sizes were 750 mm^3 and 850 mm^3 in the untreated mice, versus 130 mm^3 and 150 mm^3 in the treated mice.

[12] = test system: MDA-MB-231 breast cancer cells; test: Survival of MDA-MB-231 cells after single application
Source text: Each value is an average value of three measurements obtained in three different experiments.

[13] = test system: cardiomyocytes; test: Effect on quiescent cells: cardiomyocytes; assay type: cell-based; details: 10 to 30 μM PJ-34, 100 μM Tiq-A, 50 μM Phen
[14] = test system: brain cortical neurons; test: Effect on quiescent cells: brain cortical neurons; assay type: cell-based; details: 10 to 30 μM PJ-34, 100 μM Tiq-A, 50 μM Phen
[15] = molecular target: T2, HSET (Homo sapiens, UniProt Q9BW19); test: Post translational modification of HSET in MDA-MB-231 cells (pI shift, 2-D gel electrophoresis); assay type: cell-based; details: ABT888 at 5-20 μM
T2 sequence (Q9BW19 1-673): T1 sequence (Q9BW19 1-673)
Method: Post translational modifications of HSET in MDA-MB-231 breast cancer cells (FIG. 24B-I) were measured by the shifts in its isoelectric point (pI). […] Also, HSET is not modified in normal epithelial cells MCF10A. The vertical lines mark the point of loading of the proteins including HSET in the cell extracts. The arrows mark the shifted pI of HSET. In untreated MDA-MB-231 cells, the largest shift in pI of HSET was to pH 5.6 in the untreated MDA-MB-231 cells.

[16] = test system: HCC1937 (triple negative, BRCA deficient) human breast cancer cells; test: Combination of MEK and PARP inhibitors on HCC1937 cells; assay type: cell-based; details: 48 hours; PJ-34 5 or 10 μM or Tiq-A 50 μM with 5 μM U0126

binding of γ-tubulin to kinesin-14/HSET [1]: did not affect the binding
Compound: C[C@]1(c2nc3c(C(N)=O)cccc3[nH]2)CCCN1 [ABT888, reference compound]
co-immunoprecipitation of α-tubulin with γ-tubulin [2]: not

Compound: CN(C)Cc1ccc(-c2nc3cccc4c3n2CCNC4=O)cc1 [AG14361, reference compound]
Ki ([3]; PARP-1): < 0.005 µM | cells eradicated [4]: 50%

Compound: O=C1CCC(=O)N1c1cc(Cc2n[nH]c(=O)c3ccccc23)ccc1F [KU0058684]
inhibition of CAPANI cells [5]: inhibited

Compound: Cc1nc2c(O)cccc2c(=O)[nH]1 [NU1025]
inhibition of CAPANI cells [5]: not inhibited

Compound: CN(C)CC(=O)Nc1ccc2[nH]c(=O)c3ccccc3c2c1 [PJ-34, N-(6-oxo-5,6-dihydro-phenanthridin-2-yl)-N,N-dimethylacetamide, HCl]
viability, growth or behavior of the mice ([6]; 3 months after 14-day osmotic pump treatment (Example 6)): did not affect viability, growth or behavior | vitality, growth, development, or any other behavior of treated mice ([6]; 14-day slow release of PJ-34, follow-up periods (Example 11)): did not affect the vitality, growth, development, or any other behavior | survival of the other 3 treated mice [7]: more than 4 months | cell death ([8]; 48 hours after single application of 10-20 μM PJ-34): more than 99.5% | MCF-7 cells eradicated ([8]; 48 hours of incubation with 10 μM PJ-34): More than 99% | cytotoxicity in glioblastoma cancer cells [9]: cytotoxic in glioblastoma cancer cells at high concentrations | concentration at which PJ-34 acts as centrosomes de-clustering agent [10]: above 20 microM | Tumor sizes [11]: 130 mm^3 and 150 mm^3

Compound: O=c1[nH]c2ccccc2c2ccccc12 [Phen, 6-(5H)-phenanthridinone]
EC50 [3]: 0.12 µM | killing of MDA-MB-231 breast cancer cells [12]: efficient killing | impairment of quiescent cells [13]: not impaired at all | MCF-7 survival [8]: did not survive | killing of MCF-7 cells [8]: efficient in killing MCF-7 cells | cytotoxicity in glioblastoma cancer cells [9]: cytotoxic in glioblastoma cancer cells at high concentrations | impairment of quiescent cells [14]: not impaired at all | binding of γ-tubulin to kinesin-14/HSET [1]: interfered with the binding

Compound: O=c1[nH]c2sccc2c2ccccc12 [Tiq-A, 4H-thieno[2,3-c]isoquinolin-5-one]
post translational modification of HSET (pI shift) [15]: prevent the post translational modification | EC50 [3]: 0.45 µM | killing of MDA-MB-231 breast cancer cells [12]: efficient killing | impairment of quiescent cells [13]: not impaired at all | MCF-7 survival [8]: did not survive | killing of MCF-7 cells [8]: efficient in killing MCF-7 cells | cytotoxicity in glioblastoma cancer cells [9]: cytotoxic in glioblastoma cancer cells at high concentrations | impairment of quiescent cells [14]: not impaired at all | binding of γ-tubulin to kinesin-14/HSET [1]: interfered with the binding | effect of combination with MEK inhibitor U0126 versus each inhibitor alone [16]: synergistic effect
